Target: T1, S-nitrosoglutathione reductase (GSNOR) (Homo sapiens, UniProt P11766)
T1 construct: made in house; host or cells: E. coli
Assay: GSNOR assay (inhibition of GSNOR activity, NADH absorbance at 340 nm)
Assay type: biochemical
Conditions: GSNOR inhibitor activity, Tables 1-6; read-out: IC50 range
Experimental: Various compounds were tested in vitro for their ability to inhibit GSNOR activity.
GSNOR expression and purification is described in Biochemistry 2000, 39, 10720-10729.
Pre-cultures were grown from stabs of a GSNOR glycerol stock in 2XYT media containing 100 ug/ml ampicillin after an overnight incubation at 37° C. […] GSNOR expression was induced with 0.1% arabinose in an overnight incubation at 20° C.
E. coli cell paste was lysed by nitrogen cavitation and the clarified lysate purified by Ni affinity chromatography on an AKTA FPLC (Amersham Pharmacia). The column was eluted in 20 mM Tris pH 8.0/250 mM NaCl with a 0-500 mM imidazole gradient. Eluted GSNOR fractions containing the Smt-GSNOR fusion were digested overnight with Ulp-1 at 4° C. to remove the affinity tag then re-run on the Ni column under the same conditions. GSNOR was recovered in the flowthrough fraction and for crystallography is further purified by Q-Sepharose and Heparin flowthrough chromatography in 20 mM Tris pH 8.0, 1 mM DTT, 10 uM ZnSO4.
GSNOR assay: GSNO and enzyme/NADH Solutions are made up fresh each day. The solutions are filtered and allowed to warm to room temperature. GSNO solution: 100 mM NaPO4 (pH 7.4), 0.480 mM GSNO. 396 μL of GSNO Solution is added to a cuvette followed by 8 μL of test compound in DMSO (or DMSO only for full reaction control) and mixed with the pipette tip. Compounds to be tested are made up at a stock concentration of 10 mM in 100% DMSO. 2 fold serial dilutions are done in 100% DMSO. 8 μL of each dilution are added to an assay so that the final concentration of DMSO in the assay is 1%. The concentrations of compounds tested range from 100 to 0.003 μM. Enzyme/NADH solution: 100 mM NaPO4 (pH 7.4), 0.600 mM NADH, 1.0 μg/mL GSNO Reductase. 396 μL of the Enzyme/NADH solution is added to the cuvette to start the reaction. The cuvette is placed in the Cary 3E UV/Visible Spectrophotometer and the change in 340 nm absorbance/min at 25° C. is recorded for 3 minutes. The assays are done in triplicate for each compound concentration. IC50's for each compound are calculated using the standard curve analysis in the Enzyme Kinetics Module of SigmaPlot.
Final assay conditions: 100 mM NaPO4, pH 7.4, 0.240 mM GSNO, 0.300 mM NADH, 0.5 μg/mL GSNO Reductase, and 1% DMSO. Final volume: 800 μL/cuvette.

T1 sequence (P11766 whole entry): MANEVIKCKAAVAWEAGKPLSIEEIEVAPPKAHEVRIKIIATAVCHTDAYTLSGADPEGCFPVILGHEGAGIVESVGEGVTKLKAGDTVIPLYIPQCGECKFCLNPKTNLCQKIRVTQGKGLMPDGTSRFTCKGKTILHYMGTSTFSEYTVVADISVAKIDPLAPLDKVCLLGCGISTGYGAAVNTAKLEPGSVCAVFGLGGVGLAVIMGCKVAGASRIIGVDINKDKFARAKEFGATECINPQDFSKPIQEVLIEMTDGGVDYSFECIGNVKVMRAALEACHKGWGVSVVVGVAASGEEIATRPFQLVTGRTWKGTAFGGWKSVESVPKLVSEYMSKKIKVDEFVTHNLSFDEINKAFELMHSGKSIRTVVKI

Structure (SMILES)	IC50
O=C(O)C1CCN(c2ccc3cc(O)ccc3n2)CC1 [Compound I-5]	1000 to 10000 nM
O=C(O)c1ccc(-c2ccc3cc(O)ccc3n2)cc1Cl [Compound I-9]	1000 to 10000 nM
O=c1nc(-c2ccc(-c3ccc4cc(O)ccc4n3)cc2)[nH]o1 [Compound I-12]	< 100 nM
Oc1ccc2nc(-c3ccc(-c4nn[nH]n4)cc3Cl)ccc2c1 [Compound I-23]	< 100 nM
CN(C)c1cc(C(=O)O)ccc1-c1ccc2cc(O)ccc2n1 [Compound I-25]	< 100 nM
O=C(O)c1ccc(-c2cc(F)c3cc(O)ccc3n2)cc1 [Compound I-26, 4-(4-fluoro-6-hydroxyquinolin-2-yl)benzoic acid]	< 100 nM
O=c1nc(-c2ccc(-c3ccc4cc(O)ccc4n3)cc2)[nH]s1 [Compound I-29]	100 to 1000 nM
O=C(O)c1ccc(-c2ccc3cc(O)ccc3n2)c(C(F)(F)F)c1 [Compound I-30]	< 100 nM
O=c1[nH]nc(-c2ccc(-c3ccc4cc(O)ccc4n3)cc2)s1 [Compound I-33]	100 to 1000 nM
O=c1nc(-c2ccc(-c3ccc4cc(O)ccc4n3)cc2)o[nH]1 [Compound I-34]	100 to 1000 nM
O=c1nc(-c2ccc(-c3ccc4cc(O)ccc4n3)cc2)s[nH]1 [Compound I-39]	100 to 1000 nM
O=C(O)c1ccc(-c2cc(F)c3cc(O)ccc3n2)c(F)c1 [Compound I-40, 3-fluoro-4-(4-fluoro-6-hydroxyquinolin-2-yl)benzoic acid]	< 100 nM
O=C(O)[C@H]1CC[C@H](c2nc3ccc(O)cc3cc2C(F)(F)F)CC1 [Compound I-43]	< 100 nM
O=C(O)[C@H]1CC[C@@H](c2nc3ccc(O)cc3cc2C(F)(F)F)CC1 [Compound I-44]	1000 to 10000 nM
O=C(O)c1ccc(-c2ccc3c(Br)c(O)ccc3n2)cc1 [Compound I-45, 4-(5-bromo-6-hydroxyquinolin-2-yl)benzoic acid]	100 to 1000 nM
O=C(O)c1ccc(-c2ccc3cc(O)ccc3[n+]2[O-])c(Cl)c1 [Compound I-50, 2-(4-carboxy-2-chlorophenyl)-6-hydroxyquinoline 1-oxide]	100 to 1000 nM
N#Cc1cc2cc(O)ccc2nc1-c1ccc(C(=O)O)cc1 [Compound I-52, 4-(3-cyano-6-hydroxyquinolin-2-yl)benzoic acid]	< 100 nM
O=C(O)c1ccc(-c2ccc3c(F)c(O)ccc3n2)cc1 [Compound I-53, 4-(5-fluoro-6-hydroxyquinolin-2-yl)benzoic acid]	< 100 nM
O=C(O)c1ccc(-c2ccc3cc(O)cc(F)c3n2)cc1 [Compound I-54, 4-(8-fluoro-6-hydroxyquinolin-2-yl)benzoic acid]	< 100 nM
O=C(O)c1ccc(-c2ccc3cc(O)ccc3n2)c(O)c1 [Compound I-55, 3-hydroxy-4-(6-hydroxyquinolin-2-yl)benzoic acid]	< 100 nM
O=C(O)c1ccc(-c2ccc3c(F)c(O)ccc3n2)c(F)c1 [Compound I-56]	< 100 nM
O=C(O)c1ccc(-c2ccc3c(F)c(O)ccc3n2)c(Cl)c1 [Compound I-57]	< 100 nM
O=C(O)c1ccc(-c2ccc3cc(O)ccc3n2)cc1O [Compound I-60, 2-hydroxy-4-(6-hydroxyquinolin-2-yl)benzoic acid]	< 100 nM
O=[N+]([O-])c1cc(-c2ccc3cc(O)ccc3n2)ccc1O [Compound I-61, 2-(4-hydroxy-3-nitrophenyl)quinolin-6-ol]	1000 to 10000 nM
CC(C)c1oc2cc(O)ccc2c(=O)c1Oc1ccc(C(=O)O)cc1 [Compound V-3, 4-(7-hydroxy-2-isopropyl-4-oxo-4H-chromen-3-yloxy)benzoic acid]	1000 to 10000 nM
O=C(O)c1ccc(Oc2c(C(F)(F)F)oc3cc(O)ccc3c2=S)cc1 [Compound V-4, 4-((7-hydroxy-4-thioxo-2-(trifluoromethyl)-4H-chromen-3-yl)oxy)benzoic acid]	100 to 1000 nM
COc1cc(Oc2c(C(F)(F)F)oc3cc(O)ccc3c2=O)ccc1C(=O)O [Compound V-5]	1000 to 10000 nM
O=c1c(Oc2ccc(-c3nnn[nH]3)cc2)c(C(F)(F)F)oc2cc(O)ccc12 [Compound V-6, 3-(4-(1H-tetrazol-5-yl)phenoxy)-7-hydroxy-2-(trifluoromethyl)-4H-chromen-4-one]	1000 to 10000 nM
O=C(O)c1ccc(Sc2c(C(F)(F)F)oc3cc(O)ccc3c2=O)cc1 [Compound V-11, 4-(7-hydroxy-4-oxo-2-(trifluoromethyl)-4H-chromen-3-ylthio)benzoic acid]	1000 to 10000 nM

Now from value to molecule:

IC50	Structure (SMILES)
< 100 nM	Cc1cc2cc(O)ccc2nc1-c1ccc(C(=O)O)cc1 [Compound I-1]
< 100 nM	Cc1cc2cc(O)ccc2nc1-c1ccc(-c2nnn[nH]2)cc1 [Compound I-2]
100 to 1000 nM	O=C(O)C1CCC(c2ccc3cc(O)ccc3n2)CC1 (centres unmarked) [Compound I-6]
< 100 nM	O=C(O)c1ccc(-c2ccc3cc(O)ccc3n2)cc1F [Compound I-10]
< 100 nM	Oc1ccc2nc(-c3ccc(-c4nn[nH]n4)cc3)cc(Cl)c2c1 [Compound I-11]
< 100 nM	COc1cc(C(=O)O)ccc1-c1ccc2cc(O)ccc2n1 [Compound I-14]
1000 to 10000 nM	O=C(O)c1ccc(-c2ccc3cc(O)ccc3n2)s1 [Compound I-15]
100 to 1000 nM	O=C(O)C1CC=C(c2ccc3cc(O)ccc3n2)CC1 (centres unmarked) [Compound I-16]
< 100 nM	O=c1nc(-c2ccc(-c3ccc4cc(O)ccc4n3)cc2F)[nH]o1 [Compound I-20]
< 100 nM	O=c1nc(-c2ccc(-c3ccc4cc(O)ccc4n3)c(F)c2)[nH]o1 [Compound I-21]
< 100 nM	O=c1[nH]nc(-c2ccc(-c3ccc4cc(O)ccc4n3)cc2)o1 [Compound I-24]
100 to 1000 nM	O=C(O)[C@H]1CC[C@H](c2nc3ccc(O)cc3cc2Cl)CC1 [Compound I-35]
< 100 nM	O=C(O)c1ccc(-c2cc(F)c3cc(O)ccc3n2)c(Cl)c1 [Compound I-37, 3-chloro-4-(4-fluoro-6-hydroxyquinolin-2-yl)benzoic acid]
100 to 1000 nM	Oc1ccc2nc(-c3ccc(-c4nn[nH]n4)s3)ccc2c1 [Compound I-38]
< 100 nM	O=C(O)C1CCN(c2nc3ccc(O)cc3cc2C(F)(F)F)CC1 [Compound I-41]
< 100 nM	O=C(O)c1ccc(-c2ccc3cc(O)ccc3n2)c(Br)c1 [Compound I-46, 3-bromo-4-(6-hydroxyquinolin-2-yl)benzoic acid]
100 to 1000 nM	CN(C)c1cc(-c2ccc(C(=O)O)cc2)nc2ccc(O)cc12 [Compound I-47, 4-(4-(dimethylamino)-6-hydroxyquinolin-2-yl)benzoic acid]
< 100 nM	COc1cc(C(=O)O)ccc1-c1cc(F)c2cc(O)ccc2n1 [Compound I-48, 4-(4-fluoro-6-hydroxyquinolin-2-yl)-3-methoxybenzoic acid]
< 100 nM	N#Cc1cc(C(=O)O)ccc1-c1ccc2cc(O)ccc2n1 [Compound I-49, 3-cyano-4-(6-hydroxyquinolin-2-yl)benzoic acid]
1000 to 10000 nM	Nc1cc(-c2ccc(C(=O)O)cc2)nc2ccc(O)cc12 [Compound I-51, 4-(4-amino-6-hydroxyquinolin-2-yl)benzoic acid]
< 100 nM	Cc1cc(C(=O)O)ccc1-c1ccc2c(F)c(O)ccc2n1 [Compound I-58]
100 to 1000 nM	COc1cc(-c2ccc3cc(O)ccc3n2)ccc1C(=O)O [Compound I-59, 4-(6-hydroxyquinolin-2-yl)-2-methoxybenzoic acid]
1000 to 10000 nM	O=C(O)c1ccc(Oc2c(-c3ccccc3)oc3cc(O)ccc3c2=O)cc1 [Compound V-2, 4-((7-hydroxy-4-oxo-2-phenyl-4H-chromen-3-yl)oxy)benzoic acid]
1000 to 10000 nM	O=C(O)c1ccc(Oc2c(-c3ccc(Cl)cc3)oc3cc(O)ccc3c2=O)cc1 [Compound V-7, 4-(2-(4-chlorophenyl)-7-hydroxy-4-oxo-4H-chromen-3-yloxy)benzoic acid]
1000 to 10000 nM	O=C(O)c1ccc(Oc2c(-c3ccc(F)cc3)oc3cc(O)ccc3c2=O)cc1 [Compound V-8, 4-(2-(4-fluorophenyl)-7-hydroxy-4-oxo-4H-chromen-3-yloxy)benzoic acid]
1000 to 10000 nM	COc1ccc(-c2oc3cc(O)ccc3c(=O)c2Oc2ccc(C(=O)O)cc2)cc1 [Compound V-9, 4-(7-hydroxy-2-(4-methoxyphenyl)-4-oxo-4H-chromen-3-yloxy)benzoic acid]
1000 to 10000 nM	O=C(O)c1ccc(Oc2c(-c3ccc(O)cc3)oc3cc(O)ccc3c2=O)cc1 [Compound V-10, 4-(7-hydroxy-2-(4-hydroxyphenyl)-4-oxo-4H-chromen-3-yloxy)benzoic acid]
